Here are results for two compounds from patent US12679878B2, “CRF2 receptor agonists and their use in therapy” (SANOFI, priority 2020, dated 2026).

In brackets after ≈: the same amount, converted by molar mass. Starred links: 1 amine or outer side, 2 acyl side, 3 side chain; linkers in the order of their positions; H or OH if unused. Non-standard residues stand in square brackets, D forms with d. Residues, ends and D or L forms follow the SMILES beside them. Groups on a side chain read outwards from the residue. *: point of attachment. C18 diacid = O=C(O)CCCCCCCCCCCCCCCCC(=O)*; C16 diacid = O=C(O)CCCCCCCCCCCCCCC(=O)*; γGlu = O=C(O)[C@H](CCC(=O)[*:2])N[*:1]; AEEA = NCCOCCOCC(=O)O Bounds are passed on as bounds.

The target of data set [1] is T1, human CRF2α receptor (Homo sapiens, UniProt Q13324).
T1 construct: expressed in transfected cells; host or cells: TeloHEAC
T1 sequence (Q13324 1-411): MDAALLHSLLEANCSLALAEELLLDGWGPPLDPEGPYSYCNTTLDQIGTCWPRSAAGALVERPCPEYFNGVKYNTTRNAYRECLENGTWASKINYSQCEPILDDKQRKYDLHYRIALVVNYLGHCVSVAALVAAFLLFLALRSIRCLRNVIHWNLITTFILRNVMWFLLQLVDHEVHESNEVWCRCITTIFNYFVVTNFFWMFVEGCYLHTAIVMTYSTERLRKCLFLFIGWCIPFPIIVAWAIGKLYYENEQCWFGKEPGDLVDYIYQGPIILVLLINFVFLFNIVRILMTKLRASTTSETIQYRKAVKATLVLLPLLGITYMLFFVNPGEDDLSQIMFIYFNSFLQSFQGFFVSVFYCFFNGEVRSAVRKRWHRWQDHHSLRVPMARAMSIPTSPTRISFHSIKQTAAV
In words: cAMP agonism at human CRF2 α receptor in TeloHEAC cells (Example 7). The data set is classed as cell-based. Conditions: cAMP HTRF, TeloHEAC cells stably expressing human CRF2 α. The gist of the method:
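Thawed frozen stably transfected cells in HBSS/20 mM HEPES (0% or 0.1% HSA) plus 2 mM IBMX were exposed to compound at 2000 cells/well for 30 min at room temperature. Intracellular cAMP was read by HTRF (665/620 nm ratio) after 1 h lysis; EC50 was derived with 1000 nM urocortin 2 set as 100%.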
In general terms: Time-resolved FRET reads energy transfer from a long-lived donor to a nearby acceptor.

Data set [2] is described as follows: Solubility in buffer systems by UPLC-UV (Example 13). In kind it is physicochemical. Conditions: target 10 mg/ml. The method in brief: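 The supernatant was diluted 1:10 and quantified by UPLC-UV peak area against a reference standard curve, correcting for sequence-based extinction coefficients.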
In data set [3] the target is T2, CRF1R receptor (Homo sapiens, UniProt P34998).
T2 construct: host or cells: CHO-K1 clone 2
T2 sequence (P34998 24-415): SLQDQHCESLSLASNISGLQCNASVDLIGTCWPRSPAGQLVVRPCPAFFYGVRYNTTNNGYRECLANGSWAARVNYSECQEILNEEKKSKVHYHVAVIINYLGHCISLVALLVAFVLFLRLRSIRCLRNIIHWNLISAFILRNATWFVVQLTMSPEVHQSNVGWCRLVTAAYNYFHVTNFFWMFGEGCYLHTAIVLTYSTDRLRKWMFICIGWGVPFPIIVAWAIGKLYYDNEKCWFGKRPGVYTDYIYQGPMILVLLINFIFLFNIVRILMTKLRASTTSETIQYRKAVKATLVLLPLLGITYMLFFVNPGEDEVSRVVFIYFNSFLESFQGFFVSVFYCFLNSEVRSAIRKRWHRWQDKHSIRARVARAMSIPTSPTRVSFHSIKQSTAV
In words: cAMP activity at anti-target CRF1R, CRF1R-overexpression CHO cell line (Example 9). The data set is classed as cell-based. Conditions: CHO. The gist of the method: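 cAMP accumulation was read by HTRF after 30 min at room temperature of compound treatment. Cells were cryopreserved CHO cells overexpressing CRF1R, plated at 2000/well in IBMX (2 mM)-containing HBSS/HEPES buffer with 0 or 0.1% HSA. Activity was normalized to 1000 nM UCN2 as 100%.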

Another data set concerns rat CRF2R α receptor. In words: cAMP agonism at rat CRF2R α receptor in A7R5 rat aortic smooth muscle cells (Example 8). The data set is classed as cell-based. Conditions: cAMP HTRF, A7R5 rat aortic smooth muscle cell line, 0% HSA. The gist of the method:
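Thawed cryopreserved A7R5 cells in HBSS/20 mM HEPES (0 or 0.1% HSA) with 2 mM IBMX, 2000 cells/well, were exposed to compound for 30 min at room temperature. cAMP was read by HTRF (665/620 nm ratio) after 1 h with lysis reagents. Activity was normalised to 1000 nM urocortin 2 as 100%, and EC50 was taken as the concentration giving 50% of maximal activation.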

In another data set the target is T3, recombinant human CRF2 (Homo sapiens, UniProt Q13324).
T3 construct: expressed in transfected cells; host or cells: HEK
T3 sequence (Q13324 1-411): T1 sequence (Q13324 1-411)
As to the kind of experiment: CRF2a (h) agonist radioligand binding, [125]sauvagine, HEK cell membranes (Example 11). On the procedure: Receptor binding of the compounds was assessed using a CRF2a (h) (agonist radioligand) assay.
HEK cells expressing recombinant human CRF2 were used as a source of receptor for membrane preparation.
IC50 values (concentration causing a half-maximal inhibition of control specific binding) and Hill coefficients (nH) were determined by non-linear regression analysis of the competition curves generated with mean replicate values using Hill equation curve fitting. The inhibition constants (Ki) were calculated using the Cheng Prusoff equation [Ki=IC50/(1+L/KD) where L is the concentration of radioligand in the assay, and KD is the affinity of the radioligand for the receptor). A Scatchard plot was used to determine the KD.

Data set [4] in a line: In vitro plasma stability, rat plasma (Example 19.11). In kind it is in vitro ADME, Sprague Dawley rats. Also on record: remaining at 2 h: dose or concentration left out as unconfirmed. Conditions: male, Sprague Dawley, rat, plasma, 37° C. On the procedure:
(§1) In vitro plasma metabolic stability was studied in male Sprague Dawley rats and human. Test compound were incubated […] for 2 hours at 37° C. At each time point (0, 0.25, 1 and 2 h), samples were prepared for analysis by means of a single step protein precipitation technique by adding 150 μL of ethanol, 0.1% formic acid to 50 μL aliquots of plasma. Samples were mixed by vortex for homogeneity and then subjected to centrifugation at 14000 rpm for 15 min. The supernatant (100 μL) was collected, diluted with 100 μL of water, 0.1% formic acid and analyzed by LC-HRMS (TripleTOF 6600+, AB Sciex). For each test compound, the area ratios at each time point were compared to the 0 h area ratio and converted to a percentage remaining.

The target in data set [5] is T1, human CRF2α receptor. In words: cAMP agonism at human CRF2α receptor in TeloHEAC cells, FA modified peptides (Example 19.9). In kind it is cell-based. Conditions: 0% HSA, relative to urocortin 2. The method in brief:
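Efficacy and EC50 are referenced to 100 nM urocortin 2 as 100%, with cAMP measured as the 665/620 nm HTRF ratio after 1 h at room temperature. Compounds (0.5 mM DMSO stock, 16 twofold dilutions) acted 30 min at 37 °C on CRF2α-expressing TeloHEAC cells, buffer containing IBMX and 0% or 0.2% HSA.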

The target in data set [6] is T2, CRF1R receptor. In words: cAMP activity at anti-target CRF1R, CHO-K1 cell line clone 2 (Example 19.10). Conditions: ratio of CRF1 EC50 to CRF2 EC50. In kind it is cell-based. The method in brief:
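A CRF1R-overexpressing CHO-K1 line (clone 2) was grown in F12/10% FBS/G418 and frozen in aliquots before use. The cAMP assay followed the preceding procedure, with 100% activation defined by Sauvagine at 100 nM.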

A short description of data set [7]: Chemical stability as % loss by LC-UV, 28 days 40° C. vs 5° C. (Example 19.11). The data set is classed as physicochemical.
A short description of data set [8]: Buffer solubility by LC-UV, pH 7.4 phosphate and pH 4.5 acetate (Example 19.11). The data set is classed as physicochemical. Conditions: target 10 mg/mL. The method in brief: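 Powders dissolved at a target 10 mg/mL in 100 mM phosphate pH 7.4 or 100 mM acetate pH 4.5, held 1 h at room temperature, then centrifuged. Diluted supernatant analysed by LC-UV; solubility from peak area against the same compound at 0.5 mg/ml in water:acetonitrile 1:1 with 0.1% formic acid.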

A short description of data set [9]: In vitro plasma stability, human plasma (Example 19.11). The data set is classed as in vitro ADME. Also on record: dose or concentration left out as unconfirmed. Conditions: 37° C. On the procedure:
as §1

In general, EC50 refers to the concentration giving half of the maximal effect. As usually defined, the solubility is the concentration that dissolves in the medium under given conditions. What is called Emax is the maximal effect, on the per cent scale that the assay sets. For orientation: Ki means the equilibrium dissociation constant of an inhibitor or competing ligand from its target. `CC[C@H](C)[C@H](NC(=O)[C@H](CCC(N)=O)NC(=O)[C@H](CCC(=O)O)NC(=O)[C@H](CC(C)C)NC(=O)[C@H](CC(C)C)NC(=O)[C@H](CCC(N)=O)NC(=O)[C@H](CCCCN)NC(=O)[C@H](CC(N)=O)NC(=O)[C@H](CCCCN)NC(=O)[C@H](CCC(=O)O)NC(=O)[C@H](C)NC(=O)[C@H](CCC(N)=O)NC(=O)[C@H](CCC(N)=O)NC(=O)[C@H](CCCNC(=N)N)NC(=O)[C@H](CCC(=O)O)NC(=O)[C@H](CCCCN)NC(=O)[C@H](CCCCN)NC(=O)[C@H](CCC(N)=O)NC(=O)[C@H](CCCCN)NC(=O)[C@H](CCC(N)=O)NC(=O)[C@H](CCC(N)=O)NC(=O)[C@H](CCCCN)NC(=O)[C@H](CC(C)C)NC(=O)[C@H](CC(C)C)NC(=O)[C@@H](NC(=O)[C@H](CCC(N)=O)NC(=O)[C@H](CCCCNC(=O)COCCOCCNC(=O)COCCOCCNC(=O)CC[C@H](NC(=O)CCCCCCCCCCCCCCCCC(=O)O)C(=O)O)NC(=O)[C@@H](NC(=O)[C@H](CCCCN)NC(=O)[C@@H](NC(=O)[C@@H]1CCCN1C(=O)[C@@H](NC(=O)[C@H](CC(=O)O)NC(=O)[C@H](CC(C)C)NC(=O)[C@H](CO)NC(=O)[C@H](CC(C)C)NC(=O)[C@@H](NC(=O)[C@@H](N)Cc1ccccc1)[C@@H](C)O)C(C)C)[C@@H](C)O)[C@@H](C)CC)[C@@H](C)CC)C(N)=O` [compound 51] (H-FTLSLDVPTKIK([AEEA-AEEA-γGlu-C18 diacid])QILLKQQKQKKERQQAEKNKQLLEQI-NH2; N-terminus assumed): the EC50 came to 0.32 nM at human CRF2α receptor [1] (0% HSA, read-out: EC50 [nM], 0% HSA); 21.4 nM at human CRF2α receptor [1] (0.1% HSA, read-out: EC50 [nM], 0.1% HSA); 0.87 nM with rat CRF2R α receptor. Moreover, the solubility at 1 h was greater than 8800 µg/mL in [2] (Buffer B: 100 mM acetate buffer, pH 4.5, 2.7 mg/ml m-cresol, read-out: Solubility in Buffer B) and greater than 7700 µg/mL in data set [2] (Buffer C: 100 mM phosphate buffer, pH 7.4, read-out: Solubility in Buffer C). The same compound yielded an Emax on CRF1R receptor [3] of 3.38%. Also, at recombinant human CRF2, the Ki is 4.3 nM. Further, at recombinant human CRF2 (competition with [125]sauvagine 0.1 nM), the “nH (Hill coefficient)” value is recorded as 0.8.
With `CC[C@H](C)[C@H](N)C(=O)N[C@H](C(=O)N[C@@H](CC(C)C)C(=O)N[C@@H](CO)C(=O)N[C@@H](CC(C)C)C(=O)N[C@@H](CC(=O)O)C(=O)N[C@@H](C(=O)N1CCC[C@H]1C(=O)N[C@H](C(=O)N[C@@H](CCCCN)C(=O)N[C@@H](CC(C)C)C(=O)N[C@@H](CCCCNC(=O)CC[C@H](NC(=O)CCCCCCCCCCCCCCC(=O)O)C(=O)O)C(=O)N[C@@H](CCC(N)=O)C(=O)N[C@H](C(=O)N[C@@H](CC(C)C)C(=O)N[C@@H](CC(C)C)C(=O)N[C@@H](CCCCN)C(=O)N[C@@H](CCC(N)=O)C(=O)N[C@@H](CCC(=O)O)C(=O)N[C@@H](CCCNC(=N)N)C(=O)N[C@@H](CCC(N)=O)C(=O)N[C@@H](CCCCN)C(=O)N[C@@H](CCCCN)C(=O)N[C@@H](CCC(N)=O)C(=O)N[C@@H](CCCNC(=N)N)C(=O)N[C@@H](CCC(N)=O)C(=O)N[C@@H](CCC(N)=O)C(=O)N[C@@H](C)C(=O)N[C@@H](CCC(=O)O)C(=O)N[C@@H](CCCCN)C(=O)N[C@@H](CC(N)=O)C(=O)N[C@@H](CCCCN)C(=O)N[C@@H](CCC(N)=O)C(=O)N[C@H](C(=O)N[C@@H](CC(C)C)C(=O)N[C@@H](C)C(=O)N[C@@H](CCC(N)=O)C(=O)N[C@H](C(N)=O)C(C)C)[C@@H](C)CC)[C@@H](C)CC)[C@@H](C)CC)C(C)C)C(C)C` [compound 192] (H-IVLSLD[dV]PIKLK([γGlu-C16 diacid])QILLKQERQKKQRQQAEKNKQILAQV-NH2; N-terminus assumed), the amount remaining at 2 h in data set [4] stood at 109%; in [9], 95%. Also, a half-maximal response on human CRF2α receptor [5] (EC50) required 0.83 nM. Also, the CRF1/CRF2 ratio on CRF1R receptor [6] was 68. Moreover, the “% loss (chemical stability)” value in data set [7] (pH 4.5) was 0%; in data set [7] (pH 7.4), 49%. In addition, the solubility at 1 h in data set [8] (pH 4.5, 100 mM acetate buffer) amounted to 8400 µg/mL (≈ 1720 µM); in data set [8] (pH 7.4, 100 mM phosphate buffer) it was 7900 µg/mL (≈ 1610 µM).
